Here are results for two compounds from patent publication EP2161259A1, “4-Haloalkyl substituted Diaminopyrimidine” (Bayer CropScience AG, priority 2008, dated 2010).

The structures appear in SMILES notation. Some results are limits rather than exact numbers.

The test system of series [1] is Fumonisin FB1. The experiment in a line: Production of fumonisin FB1 by Fusarium proliferatum (microtiter plate, HPLC-MS/MS). The format is cell-based. As to conditions: 144 h, read-out: pI50 FB1.
The subject of series [2] is Fusarium proliferatum. The experiment in a line: microbe, parasite or virus in culture. Type of series: cell-based. As to conditions: 144 h, read-out: pI50 Wachstum.
For series [3], the system named is Gibberella zeae. As to conditions: in vivo.
Series [4] has as its system Botrytis cinerea. The format is in vivo. As to conditions: 48 h, 250 ppm. The text has this: Lösungsmittel: 24,5 Gewichtsteile Aceton 24,5 Gewichtsteile Dimethylacetamid Emulgator : 1 Gewichtsteil Alkyl-Aryl-Polyglykolether Zur […] und Emulgator und verdünnt das Konzentrat mit Wasser auf die gewünschte Konzentration. Zur Prüfung auf protektive Wirksamkeit werden junge Pflanzen mit der Wirkstoffzubereitung in der angegebenen Aufwandmenge besprüht. Nach Antrocknen des Spritzbelages werden auf jedes Blatt 2 […] Botrytis cinerea […]. Die inokulierten Pflanzen werden in einer abgedunkelten Kammer bei ca. 20°C und 100% relativer Luftfeuchtigkeit aufgestellt. 2 Tage nach der Inokulation wird die Größe der Befallsflecken auf den Blä[…]. Dabei bedeutet 0% ein Wirkungsgrad, der demjenigen der Kontrolle entspricht, während ein Wirkungsgrad von 100% bedeutet, daß kein Befall beobachtet wird.

Series [5] deals with Alternaria solani. Nature of the series: Alternaria test (tomato) / protective. Type of series: in vivo. The conditions noted are these: 168 h, 500 ppm.
Series [6] relates to Puccinia recondita. The experiment in a line: Puccinia test (wheat) / protective. Type of series: in vivo. As to conditions: 500 ppm.
The subject of series [7] is Pyricularia oryzae. The format is in vivo. The conditions noted are these: 250ppm active compound; rice, protective; evaluation 7 days after inoculation.
Series [8] deals with Cochliobolus miyabeanus. The experiment in a line: Cochliobolus test (rice) / protective. Type of series: in vivo. As to conditions: 250ppm active compound, evaluation 4 days after inoculation.
A short description of series [9]: physchem. The conditions noted are these: pH 2.7.

Consider `CNC(=O)Oc1cccc(Nc2ncc(Cl)c(NCC(F)(F)F)n2)c1` [Verbindung 34], for which the results for the IC50 in series [1] and in [2] were 10 µM and more than 50.1 µM, respectively. Besides, the Wirkungsgrad in series [3] was not below 80%.

The term chromatographic logP denotes a lipophilicity value derived from retention on a column. On to `N#CCc1cccc(Nc2ncc(Cl)c(NCC(F)F)n2)c1` [Verbindung 43], for which the Wirkungsgrad is recorded as not below 70% in [4]; not below 70% in series [5]; not below 70% in [6]; not below 80% in series [7]; not below 80% in series [8]. Also, the IC50 in [1] was 1.26 µM; in series [2] it was 6.31 µM. In series [9], the chromatographic logP worked out at 1.89.
